Results taken from patent US20250213561A1, “SELECTIVE HYPOTHALAMUS PERMEABLE HDAC6 INHIBITORS FOR TREATMENT OF LEPTIN-RESISTANT OBESITY” (The Children’s Medical Center Corporation, priority 2022, published 2025).
“Also recorded” adds a separate entry of the source.

How the values were obtained:
[1] = tested on: ACY775-responsive DMH neurons; assay: Caspase3 ablation of ACY775-responsive DMH neurons in TRAP2 DIO mice; format: in vivo
Protocol: Whether the activity of ACY775-responsive DMH neurons could be involved in the food intake and bodyweight reducing activity of HDAC6 inhibitors was investigated as a possible second order of neurons to AgRP^ARC neurons. These neurons were ablated to investigate the necessity of these neurons in mediating the ACY775's anti-obesity effects. AAV-flex-taCasp3-TEVp was injected into the DMH of TRAP2 DIO mice, and then the mice were injected with a single dose of ACY775 and 4-OHT to ablate these neurons through caspase3 protein activation. To make sure that this experimental system worked, the existence of ACY775-responsive DMH neurons was verified by c-fos staining after injection of a second dose of ACY775. This experimental method predicts that caspase 3, when activated by administration of the first dose of ACY775 in conjugation with 4-OHT injection, will lead to ablation of ACY775-responsive DMH neurons, and diminish the c-fos signals that would otherwise be created by the second dose of ACY775.

[2] = tested on: HDAC6 in ACY775-responsive DMH neurons; assay: TRAP2-HDAC6^DMH-Δ DIO mice; format: in vivo; conditions: TRAP2-HDAC6^DMH-Δ and TRAP2-HDAC6^WT DIO mice
Protocol: Coordinates used for aav-sg-HDAC6 injection into the DMH of c-Fos-iCreER::LSL-Cas9-GFP (TRAP2-Cas9) mouse., mCherry immunostaining in the aav-sg-HDAC6 injected TRAP2-cas9 obese mice, which were treated three weeks earlier with one dose of ACY775 (10 mg/kg, i.p.) (TRAP2-HDAC6^DMH-Δ) or vehicle (TRAP2-HDAC6^WT), followed by 4-Hydroxytamoxifen (4-OHT) injection, were assessed. TRAP2-HDAC6^WT and TRAP2-HDAC6^DMH-Δ mice were fasted 24-h and treated with ACY775 (10 mg/kg, i.p.). Hourly and total dark cycle food intake (g) (n=4 for each group) was determined for these mice after ACY775 injection. Daily body weight of TRAP2-HDAC6^DMH-Δ(n=10) or TRAP2-HDAC6^WT(n=11) DIO mice was measured during 2 weeks of ACY775 (10 mg/kg/day, i.p) treatment. Daily average food intake of TRAP2-HDAC6^DMH-Δ(n=10) or TRAP2-HDAC6^WT(n=11) DIO mice was measured during 2 weeks of ACY775 treatment.
To investigate whether activity of other neuronal populations are altered after HDAC6 inhibitor treatment, c-fos staining was performed in the whole brain of DIO mice, which were acutely treated with ACY775. […] Some of the DMH neurons express high levels of LepRb and involved in regulation of appetite […]. Whether HDAC6 in these ACY775-responsive DMH neurons is required or involved in any way in mediating the appetite suppressing and body weight lowering effects of ACY775 was then tested. […]

## O=C(NO)c1cnc(NC2(c3cccc(F)c3)CCCCC2)nc1 [ACY775, 2-[[1-(3-fluorophenyl)cyclohexyl]amino]-N-hydroxy-5-pyrimidinecarboxamide]
[1]; 10 mg/kg/day i.p.
  body weight and food consumption, chronic: neither reduced the body weight nor the food consumption in caspase3^on-DMH mice; also recorded: did reduce the food intake and bodyweight in caspase3^off-DMH mice
[1]; caspase3^on-DMH versus caspase3^off-DMH
  blood glucose levels: significantly higher in caspase3^on-DMH mice
[1]; caspase3^on-DMH versus caspase3^off-DMH, 10 mg/kg i.p.
  food intake in fasted mice: significantly higher than caspase3^off-DMH mice
[2]
  body weight and food intake, two weeks: lost weight and food intake was reduced equally in both groups
  food intake after a dose in 24 h fasted mice: consumed similar but small amount of food
